Experimental data as given in patent US20260069722A1, “COMPOSITION FOR FLUORESCENT LABELING, FLUORESCENT PROBE, INJECTION AGENT, SYRINGE FILLING, MEDICAL APPARATUS, MEDICAL FIBER MATERIAL, METHOD FOR PRODUCING COMPOSITION FOR FLUORESCENT LABELING, AND METHOD FOR PRODUCING MEDICAL FIBER MATERIAL” (VITA CORPORATION, priority 2022, published 2026).

Assay: mixing and kneading of ICG pigment with resin, compression molding
Format: physicochemical
Conditions: pigment (ICG in glycerol) 1 to 7 phr kneaded with PP, PVC, LDPE, EVA, TPU at 140 to 170 degrees Celsius
Method: Pigment (ICG plus solvent) was mixed and kneaded with various types of resin, and then it was verified whether or not a sheet could be manufactured by compression molding.
As the various types of resin, five types were prepared, which include polypropylene (PP), polyvinyl chloride (PVC), low-density polyethylene (LDPE), ethylene-vinyl acetate copolymer resin (EVA), and thermoplastic polyurethane (TPU). As the pigment, viscous liquid was used in which […] 25 mg of ICG were mixed and dissolved with 10 ml of glycerol.
In addition, four patterns, i.e., 1 phr, 3 phr, 5 phr, and 7 phr of the above pigment were prepared. Note that phr is abbreviation of per hundred resin, which is a unit expressing a ratio of pigment mixed in resin whose weight is 100. For instance, if A g of pigment is in 100 g of resin, the pigment ratio can be said to be A (phr).
The resin was charged into a mixer that had been preheated, and was kneaded until it was plasticized. As the above mixer, Laboplast mill 4 M150 manufactured by Toyo Seiki Seisaku-sho, Ltd. was used. Note that “Laboplast mill” is a registered trademark of Toyo Seiki Seisaku-sho, Ltd. This step was performed for each resin prepared in advance. Mixing and kneading was performed for five minutes at temperature set for each resin. […]

In the case of `CC1(C)C(/C=C/C=C/C=C/C=C2\N(CCCCS(=O)(=O)[O-])c3ccc4ccccc4c3C2(C)C)=[N+](CCCCS(=O)(=O)[O-])c2ccc3ccccc3c21.[Na+]` [ICG, indocyanine green], the “thermal degradation due to mixing and kneading” value was “thermal degradation of ICG due to mixing and kneading can be suppressed”.
